In article PMC9516332 (Frontiers in Oncology, 2022):
Like-named read-outs stand apart in the source and are kept apart here.

How the values were obtained:
Test in all cases: Kinase panel profiling at 1 µmol/L (MSA or IMAP), percentage inhibition
Format in all cases: biochemical
[1] = molecular target: panel of 255 wild-type kinases (Homo sapiens, UniProt Q9Y6E0); conditions: MST3; 1 µmol/L single concentration; read-out: %-inhibition, MST3
[2] = molecular target: T1, panel of 255 wild-type kinases (Homo sapiens, UniProt O43781); conditions: kinase DYRK3; 1 µmol/L single concentration; read-out: %-inhibition at 1 µmol/L, DYRK3
T1 sequence (O43781 1-588): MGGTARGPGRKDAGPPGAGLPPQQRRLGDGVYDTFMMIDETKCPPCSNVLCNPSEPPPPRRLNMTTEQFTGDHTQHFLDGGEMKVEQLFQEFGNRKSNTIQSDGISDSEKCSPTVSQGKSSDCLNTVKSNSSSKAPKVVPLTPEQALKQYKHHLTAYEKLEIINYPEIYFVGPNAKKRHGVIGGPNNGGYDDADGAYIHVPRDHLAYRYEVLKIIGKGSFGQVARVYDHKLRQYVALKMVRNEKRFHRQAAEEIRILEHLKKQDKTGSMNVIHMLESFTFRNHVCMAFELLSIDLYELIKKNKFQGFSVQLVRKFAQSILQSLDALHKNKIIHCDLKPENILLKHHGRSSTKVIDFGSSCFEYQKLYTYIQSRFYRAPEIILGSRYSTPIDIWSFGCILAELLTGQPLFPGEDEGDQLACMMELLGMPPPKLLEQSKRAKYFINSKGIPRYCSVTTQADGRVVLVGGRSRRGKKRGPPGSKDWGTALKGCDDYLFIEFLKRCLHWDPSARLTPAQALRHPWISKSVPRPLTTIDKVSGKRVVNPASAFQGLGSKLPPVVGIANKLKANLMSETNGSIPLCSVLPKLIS

[3] = molecular target: panel of 255 wild-type kinases (Homo sapiens, UniProt Q9P0L2); conditions: MARK1; 1 µmol/L single concentration; read-out: %-inhibition, MARK1
[4] = molecular target: panel of 255 wild-type kinases (Homo sapiens, UniProt P00533); conditions: kinase EGFR; 1 µmol/L single concentration; read-out: %-inhibition at 1 µmol/L, EGFR
[5] = molecular target: panel of 255 wild-type kinases (Homo sapiens, UniProt P07948); conditions: kinase LYNa; 1 µmol/L single concentration; read-out: %-inhibition at 1 µmol/L, LYNa
[6] = molecular target: panel of 255 wild-type kinases (Homo sapiens, UniProt P45983); conditions: kinase JNK1; 1 µmol/L single concentration; read-out: %-inhibition at 1 µmol/L, JNK1
[7] = molecular target: T2, panel of 255 wild-type kinases (Homo sapiens, UniProt P54753); conditions: kinase EPHB3; 1 µmol/L single concentration; read-out: %-inhibition at 1 µmol/L, EPHB3
T2 sequence (P54753 34-998): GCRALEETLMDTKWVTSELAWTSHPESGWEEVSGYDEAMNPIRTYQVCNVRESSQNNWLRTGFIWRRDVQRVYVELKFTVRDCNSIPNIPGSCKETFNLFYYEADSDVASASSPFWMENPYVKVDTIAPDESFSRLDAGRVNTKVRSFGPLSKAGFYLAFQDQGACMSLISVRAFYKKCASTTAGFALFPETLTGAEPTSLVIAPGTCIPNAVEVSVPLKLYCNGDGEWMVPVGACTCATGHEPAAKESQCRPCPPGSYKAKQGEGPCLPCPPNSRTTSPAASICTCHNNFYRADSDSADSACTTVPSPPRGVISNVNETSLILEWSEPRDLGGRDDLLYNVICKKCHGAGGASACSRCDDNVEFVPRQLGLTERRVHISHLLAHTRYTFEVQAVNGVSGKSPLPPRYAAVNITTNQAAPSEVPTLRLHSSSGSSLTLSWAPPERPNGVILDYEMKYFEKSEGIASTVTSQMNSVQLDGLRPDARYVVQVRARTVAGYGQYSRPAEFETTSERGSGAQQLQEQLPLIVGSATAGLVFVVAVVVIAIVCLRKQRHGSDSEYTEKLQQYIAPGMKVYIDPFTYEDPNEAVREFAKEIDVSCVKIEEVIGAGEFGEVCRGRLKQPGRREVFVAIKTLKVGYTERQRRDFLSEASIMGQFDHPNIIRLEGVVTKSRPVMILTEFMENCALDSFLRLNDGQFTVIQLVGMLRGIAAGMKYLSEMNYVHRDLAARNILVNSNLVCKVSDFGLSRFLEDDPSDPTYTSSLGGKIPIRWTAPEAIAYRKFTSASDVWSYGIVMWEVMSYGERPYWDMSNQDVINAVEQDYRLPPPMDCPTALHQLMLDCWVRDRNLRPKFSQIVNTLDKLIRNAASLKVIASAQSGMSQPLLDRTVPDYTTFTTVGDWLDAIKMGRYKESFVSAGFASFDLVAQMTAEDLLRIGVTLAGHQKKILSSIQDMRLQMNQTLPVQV

[8] = molecular target: panel of 255 wild-type kinases (Homo sapiens, UniProt P09619); conditions: read-out: %-inhibition at 1 µmol/L, PDGFRβ
[9] = molecular target: panel of 255 wild-type kinases (Homo sapiens, UniProt Q8N4C8); conditions: MINK; 1 µmol/L single concentration; read-out: %-inhibition, MINK
[10] = molecular target: panel of 255 wild-type kinases (Homo sapiens, UniProt O75582); conditions: MSK1; 1 µmol/L single concentration; read-out: %-inhibition, MSK1
[11] = molecular target: panel of 255 wild-type kinases (Homo sapiens, UniProt P53779); conditions: kinase JNK3; 1 µmol/L single concentration; read-out: %-inhibition at 1 µmol/L, JNK3
[12] = kinase PDGFRβ, 1 µmol/L single concentration

SMILES | inhibition at 1 µM [1] [%] | inhibition at 1 µM [2] [%] | inhibition at 1 µM [3] [%] | inhibition at 1 µM [4] [%] | inhibition at 1 µM [5] [%] | inhibition at 1 µM [6] [%] | inhibition at 1 µM [7] [%] | inhibition at 1 µM [8, 12] [%] | inhibition at 1 µM [9] [%] | inhibition at 1 µM [10] [%] | inhibition at 1 µM [11] [%] | inhibition at 1 µM [8] [%]
Cc1nc(NC(=O)N2CCC[C@H]2C(N)=O)sc1-c1ccnc(C(C)(C)C(F)(F)F)c1 [alpelisib] | -4.63 | 10 | -0.158 | 2 | 1.8 | -5 | -0.582 | 0.0362 | -2 | -8 | -12 | –
C[C@H]1Oc2cc(cnc2N)-c2c(nn(C)c2C#N)CN(C)C(=O)c2ccc(F)cc21 [lorlatinib] | -1.26 | -3.41 | 11 | 9.49 | 21 | -0.746 | 13 | 2.32 | -0.198 | -8 | -8.55 | –
COC(=O)N[C@@H](C)CNc1nccc(-c2cn(C(C)C)nc2-c2cc(Cl)cc(NS(C)(=O)=O)c2F)n1 [encorafenib] | 7 | -1.06 | 2.71 | 9 | 5 | 6 | 4 | 1.38 | 1.29 | 11 | 59 | –
CCc1nc(C(N)=O)c(Nc2ccc(N3CCC(N4CCN(C)CC4)CC3)c(OC)c2)nc1NC1CCOCC1 [gilteritinib] | 5 | 27 | 27 | 85 | 88 | 29 | 8 | 105 | 80 | 25 | 52 | –
COc1cc2ncnc(Nc3ccc(F)c(Cl)c3)c2cc1NC(=O)/C=C/CN1CCCCC1 [dacomitinib] | 27 | 18 | -2 | 103 | 79 | 1.07 | 2 | 68 | 7.37 | 1.13 | 0.338 | –
Cn1cc(-c2cc3c(N4CCN(c5ncc([C@@](C)(N)c6ccc(F)cc6)cn5)CC4)ncnn3c2)cn1 [avapritinib] | 12 | 49 | -10 | 25 | 87 | -4.54 | 3 | 95 | 4.44 | 2.36 | 2.14 | –
CCn1c(=O)c(-c2cc(NC(=O)Nc3ccccc3)c(F)cc2Br)cc2cnc(NC)cc21 [ripretinib] | -4 | -3.77 | -0.571 | 10 | 85 | 4 | 59 | – | 3.55 | 14 | 10 | 106
